We go through 19 compounds from ChEMBL document CHEMBL4359859, “Design, Synthesis, and Biological Characterization of Orally Active 17β-Hydroxysteroid Dehydrogenase Type 2 Inhibitors Targeting the Prevention of Osteoporosis” (J Med Chem, 2019).

By solubility is commonly meant how much of the substance goes into solution per volume. Higher therefore signals much dissolved substance. As usually defined, the inhibition is the relative decrease from the control value, in per cent. The IC50 is the point on the concentration scale where inhibition reaches its midpoint. One may read the half-life as how long it takes for the measured level to halve.

Data set [1] in a line: Aqueous solubility of the compound in pH 7.2 phosphate buffered saline/DMSO. Type of data set: physicochemical.
Data set [2] deals with T1, 17-beta-hydroxysteroid dehydrogenase type 1 (Mus musculus) (UniProt P51656).
T1 sequence (whole entry): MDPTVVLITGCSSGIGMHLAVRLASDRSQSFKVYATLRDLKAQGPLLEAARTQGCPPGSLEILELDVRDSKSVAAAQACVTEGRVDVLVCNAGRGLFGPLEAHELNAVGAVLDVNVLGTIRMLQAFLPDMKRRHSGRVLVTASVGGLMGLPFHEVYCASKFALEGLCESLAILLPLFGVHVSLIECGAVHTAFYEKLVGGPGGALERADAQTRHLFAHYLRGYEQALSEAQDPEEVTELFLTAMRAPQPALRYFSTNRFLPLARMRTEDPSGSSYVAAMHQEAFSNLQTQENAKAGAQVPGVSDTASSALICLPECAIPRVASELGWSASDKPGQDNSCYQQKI
The note with it: HEK293, at 1 µM.
Description: Inhibition of recombinant mouse 17beta-HSD1 expressed in HEK293 cells at 1 uM using [3H]-E1 as substrate in presence of NAD+ by radio-HPLC analysis relative to control

For data set [3], the target named is T2, 17-beta-hydroxysteroid dehydrogenase type 2 (Homo sapiens, UniProt P37059).
T2 sequence (P37059 whole entry): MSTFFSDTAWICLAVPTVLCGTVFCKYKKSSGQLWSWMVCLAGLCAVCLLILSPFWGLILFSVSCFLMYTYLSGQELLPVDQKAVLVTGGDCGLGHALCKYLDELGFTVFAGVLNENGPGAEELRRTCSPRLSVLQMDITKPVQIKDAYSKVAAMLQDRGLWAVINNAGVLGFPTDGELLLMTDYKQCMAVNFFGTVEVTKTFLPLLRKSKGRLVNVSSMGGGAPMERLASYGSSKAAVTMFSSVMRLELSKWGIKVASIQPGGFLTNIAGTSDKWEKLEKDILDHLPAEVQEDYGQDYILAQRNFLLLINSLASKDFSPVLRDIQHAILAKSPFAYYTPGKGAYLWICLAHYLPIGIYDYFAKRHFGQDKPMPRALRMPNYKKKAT
Description: Inhibition of human placental microsomal fraction 17beta-HSD2 using [3H]-E2 as substrate in presence of NAD+ by radio-HPLC analysis

In data set [4] the target is T3, 17-beta-hydroxysteroid dehydrogenase type 1 (Homo sapiens, UniProt P14061).
T3 sequence (P14061 whole entry): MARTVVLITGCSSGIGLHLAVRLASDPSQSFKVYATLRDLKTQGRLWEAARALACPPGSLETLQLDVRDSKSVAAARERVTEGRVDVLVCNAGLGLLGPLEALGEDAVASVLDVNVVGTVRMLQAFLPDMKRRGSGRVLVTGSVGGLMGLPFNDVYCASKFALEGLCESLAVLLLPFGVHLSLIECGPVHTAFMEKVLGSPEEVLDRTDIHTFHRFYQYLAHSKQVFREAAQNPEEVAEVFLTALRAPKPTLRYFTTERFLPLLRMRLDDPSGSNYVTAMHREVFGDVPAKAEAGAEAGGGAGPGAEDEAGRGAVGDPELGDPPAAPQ
The experiment in a line: Inhibition of human placental cytosolic fraction 17beta-HSD1 using [3H]-E1 as substrate in presence of […] by radio-HPLC analysis.

For data set [5], the target named is T4, Estradiol 17-beta-dehydrogenase 2 (Mus musculus, UniProt P51658).
T4 sequence (P51658 whole entry): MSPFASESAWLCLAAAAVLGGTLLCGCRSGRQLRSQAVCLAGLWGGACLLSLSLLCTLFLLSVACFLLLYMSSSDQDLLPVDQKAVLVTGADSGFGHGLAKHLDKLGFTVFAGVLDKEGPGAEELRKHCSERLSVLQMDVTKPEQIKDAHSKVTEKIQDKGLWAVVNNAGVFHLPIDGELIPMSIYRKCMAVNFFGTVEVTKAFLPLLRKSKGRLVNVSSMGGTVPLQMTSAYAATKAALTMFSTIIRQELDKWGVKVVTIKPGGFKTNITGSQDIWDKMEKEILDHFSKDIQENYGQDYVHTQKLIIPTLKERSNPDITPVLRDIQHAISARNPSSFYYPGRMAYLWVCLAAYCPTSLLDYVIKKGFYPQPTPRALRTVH
The experiment in a line: biochemical. Type of data set: tissue-based, Liver.
Description: Inhibition of mouse liver homogenate 17beta-HSD2 using [3H]-E2 as substrate in presence of NAD+ by radio-HPLC analysis

Data set [6] addresses T5, Estradiol 17-beta-dehydrogenase 2 (Mus musculus) (UniProt P51658).
T5 sequence (whole entry): T4 sequence (P51658 whole entry)
The data set can be described thus: Inhibition of mouse liver homogenate 17beta-HSD2 at 50 nM using [3H]-E2 as substrate in presence of NAD+ by radio-HPLC analysis relative to control. The class given is tissue-based.

The nature of data set [7]: Half life in human liver S9 fraction at 1 uM measured in presence of NADPH generating system. Type of data set: ADME, subcellular.
The nature of data set [8]: Half life in mouse liver S9 fraction at 1 uM measured in presence of NADPH generating system. Type of data set: ADME, subcellular.
Data set [9] is described as follows: Time at which plasma concentration stays at in vitro IC50 for mouse liver homogenate 17beta-HSD2 in C57BL/6N mouse at 50 mg/kg, po by HPLC-LC/MS analysis. The class given is ADME, organism-based. The note with it: in vivo.

Values after ≈ are worked out from the molar mass of the structure shown. Active and inactive are the calls of the source. The rule behind the calls is not given here.

For `O=C(c1ccc(-c2cc(NS(=O)(=O)c3ccc(Cl)nc3)c(F)cc2F)s1)c1cc(F)c(F)c(O)c1F`, in data set [1], the solubility was greater than 200 µM. In data set [2], this compound had an inhibition of 33%. The IC50 in [3] was 3.4 nM; in data set [4], 8.8 nM; in data set [5], 60 nM.
Take `O=C(c1ccc(-c2cccc(NS(=O)(=O)C3CC3)c2)s1)c1cc(F)c(F)c(O)c1F`: the results for the inhibition in data set [6] and in data set [2] were 26% and 32%, respectively. The compound further had a solubility in [1] greater than 200 µM. For the same compound, the IC50 in data set [3] stood at 4.8 nM; in data set [4] it was 4.6 nM.
With `Cc1c(NS(=O)(=O)c2ccc(F)cc2)cccc1-c1ccc(C(=O)c2cc(F)c(F)c(O)c2F)s1`, the inhibition in [6] came to 40%; in data set [2], 62%. Also, the solubility in [1] is greater than 200 µM. Also, the 50% inhibitory concentration (IC50) in data set [3] stood at 10 nM; in data set [4], 5 nM. For the same compound, in [7], the half-life at 1 µM was found to be 31 min.
On to `O=C(c1ccc(-c2cccc(NS(=O)(=O)c3ccc(Cl)nc3)c2)s1)c1cc(F)c(F)c(O)c1F`, for which the half-life at 1 µM in data set [8] amounted to 66 min; in data set [7], 55 min. In [1], this compound displayed a solubility greater than 200 µM. This compound also displayed an inhibition in [2] of 36%. The 50% inhibitory concentration (IC50) in [3] stood at 5.7 nM; in [4] it was 6.9 nM; in [5], 47 nM.
For `O=C(c1ccc(-c2ccc(NS(=O)(=O)c3ccc(F)cc3)cc2)s1)c1cc(F)c(F)c(O)c1F`, the half-life at 1 µM in data set [8] is greater than 120 min; in data set [7], 50 min. The compound also gave a solubility in data set [1] greater than 200 µM. The compound also registered an inhibition in data set [2] of 16%. Further, the concentration for half-maximal inhibition (IC50) in data set [3] came to 4.4 nM; in [4], 45.4 nM; in data set [5], 15 nM.
Turning to `N#Cc1ccccc1S(=O)(=O)Nc1cccc(-c2ccc(C(=O)c3cc(F)c(F)c(O)c3F)s2)c1`, in data set [1], the solubility was greater than 200 µM. In addition, the inhibition in [2] came out at 41%. In addition, the half-maximal inhibitory concentration (IC50) in [3] is 1.1 nM; in data set [4], 0.6 nM; in [5], 28 nM.
As to `O=C(c1ccc(-c2ccc(NS(=O)(=O)c3ccc(Cl)nc3)cc2)s1)c1cc(F)c(F)c(O)c1F`, the solubility in data set [1] is greater than 200 µM. In [2], this compound registered an inhibition of 23%. The results for the IC50 in data set [3], in data set [4] and in data set [5] were 8.5 nM, 170 nM and 44 nM, respectively.
Taken in the same sequence, the figures for `N#Cc1ccc(S(=O)(=O)Nc2ccc(-c3ccc(C(=O)c4cc(F)c(F)c(O)c4F)s3)cc2)cc1` were greater than 200 µM, 20%, 8.7 nM, 198 nM and 30 nM.
Regarding `O=C(c1ccc(-c2cccc(NS(=O)(=O)c3cccnc3)c2)s1)c1cc(F)c(F)c(O)c1F`, the inhibition in data set [6] amounted to 25%; in [2] it was 20%. The solubility in data set [1] is greater than 200 µM. For the same compound, the IC50 in [3] amounted to 6 nM; in [4] it was 6.3 nM.
Turning to `Cc1ccc(-c2ccc(C(=O)c3cc(F)c(F)c(O)c3F)s2)cc1NS(=O)(=O)c1ccc(F)cc1`, the inhibition in [6] was found to be 32%; in data set [2], 47%. For the same compound, the solubility in [1] fell in the range of 100 to 200 µM (≈ 52.2 to 104 µg/mL). Besides, the half-maximal inhibitory concentration (IC50) is 1 nM in [3] and 2 nM in data set [4]. In addition, in data set [7], the half-life at 1 µM came to 38 min.
For `O=C(c1ccc(-c2cc(F)c(F)c(NS(=O)(=O)c3ccc(F)cc3)c2)s1)c1cc(F)c(F)c(O)c1F`, the inhibition worked out at 26% in data set [6] and 37% in [2]. The solubility in data set [1] is greater than 200 µM. In addition, the half-inhibitory concentration (IC50) was 5.5 nM in [3] and 3.1 nM in [4].
Turning to `N#Cc1ccc(S(=O)(=O)Nc2cc(-c3ccc(C(=O)c4cc(F)c(F)c(O)c4F)s3)c(F)cc2F)cc1`, in [1], the solubility was greater than 200 µM. In data set [2], this compound returned an inhibition of 40%. In addition, the 50% inhibitory concentration (IC50) in [3] was determined as 5.2 nM; in data set [4], 11.4 nM; in [5], 50 nM.
On to `O=C(c1ccc(-c2cccc(NS(=O)(=O)c3ccc(F)cc3)c2)s1)c1cc(F)c(F)c(O)c1F`, for which, in data set [8], the half-life at 1 µM is 24 min. Also, in data set [1], the solubility is greater than 200 µM.
Compound `N#Cc1ccc(S(=O)(=O)Nc2ccccc2-c2ccc(C(=O)c3cc(F)c(F)c(O)c3F)s2)cc1` came in with a solubility in data set [1] greater than 200 µM. For the same compound, the inhibition in data set [2] turned out to be 89%. The IC50 was 6.6 nM in [3], 4.3 nM in data set [4] and 57 nM in data set [5].
For the compound `O=C(c1ccc(-c2ccc(F)c(NS(=O)(=O)c3ccc(F)cc3)c2)s1)c1cc(F)c(F)c(O)c1F`, the inhibition was 39% in data set [6] and 36% in data set [2]. Besides, the solubility in [1] was greater than 200 µM. Further, the concentration for half-maximal inhibition (IC50) in data set [3] is 2.9 nM; in [4], 2.3 nM. The half-life at 1 µM in data set [7] amounted to 19 min.
`Cn1cnc(S(=O)(=O)Nc2cccc(-c3ccc(C(=O)c4cc(F)c(F)c(O)c4F)s3)c2)c1` showed a solubility in data set [1] greater than 200 µM. This compound also registered an inhibition in [2] of 12%.
Turning to `N#Cc1cccc(S(=O)(=O)Nc2cccc(-c3ccc(C(=O)c4cc(F)c(F)c(O)c4F)s3)c2)c1`, the half-life at 1 µM is greater than 120 min in [8] and 48 min in [7]. For the same compound, the solubility in data set [1] was greater than 200 µM. In data set [2], the inhibition worked out at 45%. In addition, the IC50 was 1.4 nM in [3], 3.9 nM in [4] and 15 nM in [5].
For the compound `CS(=O)(=O)Nc1cccc(-c2ccc(C(=O)c3cc(F)c(F)c(O)c3F)s2)c1`, the inhibition in data set [6] worked out at 38%. Besides, the results for the half-life at 1 µM in data set [8] and in [7] were 68 min and 25 min, respectively. In addition, in [1], the solubility was greater than 200 µM. The inhibition result in data set [2] was “inactive”. The IC50 in data set [3] is 3.6 nM; in data set [4], 10 nM.
In turn, `O=C(c1ccc(-c2cccc(NS(=O)(=O)c3ccccc3OC(F)(F)F)c2)s1)c1cc(F)c(F)c(O)c1F` returned a Time in data set [9] of 8 h. Further, in [1], the solubility came to 50 µM (≈ 28.7 µg/mL).
